The text below walks through data of publication PMC9897788, “Design, synthesis and cytotoxic evaluation of novel bis-thiazole derivatives as preferential Pim1 kinase inhibitors with in vivo and in silico study” (Journal of Enzyme Inhibition and Medicinal Chemistry, 2023).

Common to all, as to assay: NCI 60 cell one-dose screening (SRB)
Type in all cases: cell-based

One assay deals with SN12C. To be noted: Homo sapiens, Renal Cancer, single dose 10 µM, 48 h, read-out: Percentage of cellular growth inhibition. A digest of the protocol: (§1)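 Here, 48-h exposure to a single 10 µM concentration was assessed in RPMI 1640 containing 5% FBS. The sulphorhodamine B read-out at 515 nm gave growth versus untreated cells, reported as inhibition (100 − growth %).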
A further assay has as its system HCT-15. Particulars: Homo sapiens; HCT-15, Colon Cancer; single dose 10 µM, 48 h; read-out: Percentage of cellular growth inhibition. In outline: as §1
Another assay has as its system MDA-MB-468. To be noted: Homo sapiens; MDA-MB-468, Breast Cancer; single dose 10 µM, 48 h; read-out: Percentage of cellular growth inhibition. A digest of the protocol:
as §1

The next assay concerns A549/ATCC. To be noted: Homo sapiens, Non-Small Cell Lung Cancer, single dose 10 µM, 48 h, read-out: Percentage of cellular growth inhibition. A digest of the protocol:
as §1

In another assay the test system is SF-295. Particulars: Homo sapiens; SF-295, CNS Cancer; single dose 10 µM, 48 h; read-out: Percentage of cellular growth inhibition. In outline: as §1
Another assay deals with HS 578T. Particulars: Homo sapiens, Breast Cancer, single dose 10 µM, 48 h, read-out: Percentage of cellular growth inhibition. A digest of the protocol: as §1
The subject of another assay is COLO 205. Particulars: Homo sapiens; COLO 205, Colon Cancer; single dose 10 µM, 48 h; read-out: Percentage of cellular growth inhibition. In outline: as §1
The test system of a further assay is ACHN. To be noted: Homo sapiens, Renal Cancer, single dose 10 µM, 48 h, read-out: Percentage of cellular growth inhibition. In outline: as §1
A further assay relates to SF-539. Particulars: Homo sapiens; SF-539, CNS Cancer; single dose 10 µM, 48 h; read-out: Percentage of cellular growth inhibition. A digest of the protocol: as §1
Another assay deals with SK-MEL-28. To be noted: Homo sapiens; SK-MEL-28, Melanoma; single dose 10 µM, 48 h; read-out: Percentage of cellular growth inhibition. In outline:
as §1

The subject of another assay is SNB-19. To be noted: Homo sapiens; SNB-19, CNS Cancer; single dose 10 µM, 48 h; read-out: Percentage of cellular growth inhibition. In outline:
as §1

The next assay concerns SK-OV-3. To be noted: Homo sapiens; SK-OV-3, Ovarian Cancer; single dose 10 µM, 48 h; read-out: Percentage of cellular growth inhibition. In outline:
as §1

In a further assay the test system is SK-MEL-5. Particulars: Homo sapiens; SK-MEL-5, Melanoma; single dose 10 µM, 48 h; read-out: Percentage of cellular growth inhibition. A digest of the protocol:
as §1

A further assay deals with NCI/ADR-RES. To be noted: Homo sapiens, Ovarian Cancer, single dose 10 µM, 48 h, read-out: Percentage of cellular growth inhibition. In outline:
as §1

The next assay concerns NCI-H522. To be noted: Homo sapiens; NCI-H522, Non-Small Cell Lung Cancer; single dose 10 µM, 48 h; read-out: Percentage of cellular growth inhibition. In outline:
as §1

For another assay, the system named is K-562. To be noted: Homo sapiens, K562; K-562, Leukemia; single dose 10 µM, 48 h; read-out: Percentage of cellular growth inhibition. A digest of the protocol: as §1
Another assay relates to MOLT-4. To be noted: Homo sapiens; MOLT-4, Leukemia; single dose 10 µM, 48 h; read-out: Percentage of cellular growth inhibition. A digest of the protocol: as §1
A further assay has as its system HOP-92. Particulars: Homo sapiens, HOP-92, 48 h, HOP-92, Non-Small Cell Lung Cancer, single dose 10 µM, read-out: Percentage of cellular growth inhibition. A digest of the protocol: as §1
For a further assay, the system named is RXF 393. Particulars: Homo sapiens; RXF 393, Renal Cancer; single dose 10 µM, 48 h; read-out: Percentage of cellular growth inhibition. A digest of the protocol:
as §1

The test system of another assay is M14. To be noted: Homo sapiens; M14, Melanoma; single dose 10 µM, 48 h; read-out: Percentage of cellular growth inhibition. In outline: as §1
For another assay, the system named is U251. To be noted: Homo sapiens, U-251; U251, CNS Cancer; single dose 10 µM, 48 h; read-out: Percentage of cellular growth inhibition. In outline:
as §1

On to `Cc1csc(Nc2cccc(Nc3nc(C)cs3)c2)n1` [3a, N^1,N^3-bis(4-methylthiazol-2-yl)benzene-1,3-diamine], for which the inhibition (as a rule, the drop in the measured response relative to a control, in per cent) at 10 µM is 13.8% in the assay with SN12C; 7.3% in the assay with HCT-15; 15.9% in the assay with MDA-MB-468; -3.9% in the assay with A549/ATCC; 9.5% with SF-295; 7.9% in the assay on HS 578T. The inhibition at 10 µM was -3.8% in the assay with COLO 205; 20.7% in the assay with ACHN; 7.9% in the assay on SF-539; 10.4% in the assay with SK-MEL-28; 1% in the assay on SNB-19; 10.7% in the assay with SK-OV-3. For the same molecule, the inhibition at 10 µM in the assay on SK-MEL-5 was determined as 6.2%; in the assay on NCI/ADR-RES, 20.1%; in the assay with NCI-H522, 39.3%; in the assay with K-562, 17.1%; in the assay on MOLT-4, 44%; with HOP-92 it was 41.2%. Further, the results for the inhibition at 10 µM with RXF 393, in the assay on M14 and in the assay on U251 were 4.8%, -7.3% and 3.5%, respectively.
